According to patent US9248133B2, “Salts of lorcaserin with optically active acids” (Arena Pharmaceuticals, Inc., priority 2010, dated 2016):

Columns and labels:
[1] = Deliquescence relative humidity (DRH) by water activity meter; assay type: physicochemical; conditions: for DRH (deliquescence relative humidity): saturated aqueous solution with excess solid at 25° C.
Excerpt: If saturated in water with excess solid, a deliquescing compound or salt thereof equilibrated in a closed system at a given temperature produces a % RH in that closed system that is equal to its deliquescing % RH (DRH) at that temperature. Fractional relative humidity is equal to water activity (aw) in the vapor phase and at equilibrium in a closed system, the aw in an aqueous solution is equal to the aw in the vapor phase above the solution (see Equation 1).
A water activity meter was used to measure DRH for selected salts described herein. […] This instrument is designed with temperature control and a small headspace above the enclosed sample to establish equilibrium between solution and vapor phases quickly.

[2] = Aqueous solubility by UPLC; assay type: physicochemical; conditions: for Solubility in water: UPLC
Protocol: Acquity ultra performance liquid chromatography (UPLC) from Waters was used for solubility and stoichiometry determination. […] UPLC was equipped with Acquity PDA detector. UPLC mobile phase solvent A was 0.1% TFA in DI-water, solvent B was 0.1% TFA in acetonitrile.
Column temperature was 40±5° C. Acquity UPLC® HSS T3 1.8 μm, 2.1×50 mm column was used.
A known amount of sample was dissolved in water and analyzed by UPLC.

[3] = cited from earlier work
[4] = cited from earlier work; remark: listed apart in the source
[5] = Dynamic moisture-sorption (DMS) analysis; conditions: for State of the sample after DMS analysis: after removal from the analyzer, PXRD where done; for DMS weight increase at 70% RH: adsorption cycle, 25° C., Form I
Protocol: Samples were prepared for DMS analysis by placing 5 mg to 20 mg of a sample in a tared sample holder. The sample was placed on the hang-down wire of the VTI balance. A drying step was run, typically at 40° C. and 0.5-1% RH for 1-2 h. The isotherm temperature is 25° C. […] A % weight change smaller than 0.010% over a specified number of minutes (typically 10-20), or up to 2 h, whichever occurs first, is required before continuing to the next % RH hold. The water content of the sample equilibrated as described above was determined at each % RH hold.

[6] = patients who completed 52 weeks of treatment according to the protocol
[7] = pivotal phase 3 program, up to two years
[8] = second phase 3 trial, top quartile of patients

CC1(C)C2CC[C@@]1(CS(=O)(=O)O)C(=O)C2.C[C@H]1CNCCc2ccc(Cl)cc21 [(R)-8-Chloro-1-methyl-2,3,4,5-tetrahydro-1H-3-benzazepine (1S)-(+)-10-Camsylate Salt]
Deliquescence conclusion from DRH ([1]; 25° C.): not deliquescent | DRH (deliquescence relative humidity) [1]: 99.8 % RH | Solubility in water [2]: 20 mg/mL

C[C@H]1CNCCc2ccc(Cl)cc21.C[C@H]1CNCCc2ccc(Cl)cc21.O=C(O)[C@@H](O)[C@H](O)[C@H](O)[C@@H](O)C(=O)O [Compound 1 Hemimucate Salt, Form I, (R)-8-Chloro-1-methyl-2,3,4,5-tetrahydro-1H-3-benzazepine Hemimucate]
Solubility in water [2]: 0.85 mg/mL

C[C@H]1CNCCc2ccc(Cl)cc21.Cl [lorcaserin, (R)-8-Chloro-1-methyl-2,3,4,5-tetrahydro-1H-3-benzazepine hydrochloride]
Average weight loss, % of body weight ([3]; 12 months, ITT-LOCF analysis): 5.8% | Average weight loss, pounds ([3]; 12 months, ITT-LOCF analysis): 12.7 pounds | Patients who lost greater than or equal to 5% of their body weight from baseline ([3]; 12 months, ITT-LOCF analysis): 47.5% | Patients who lost greater than or equal to 10% of their body weight from baseline ([3]; 12 months, ITT-LOCF analysis): 22.6% | Average weight loss of completers, % of body weight [3, 6]: 8.2% | Average weight loss of completers, pounds [3, 6]: 17.9 pounds | Tolerability ([3]; phase 3 trial): generally very well tolerated | FDA-defined valvulopathy (echocardiograms) ([3]; two-year treatment period): no apparent drug-related effect | Excess body weight lost ([4]; first phase 3 trial, based on a normal BMI of 25): about one-third | Patients who achieved at least 5% weight loss [4, 7]: About two-thirds | Patients who achieved at least 10% weight loss [4, 7]: over one-third | Average weight lost, % of weight ([4]; pivotal phase 3 program): about 8% | Depression or suicidal ideation ([4]; pivotal phase 3 program): no signal | Heart rate and blood pressure ([4]; pivotal phase 3 program): went down | Risk of cardiac valvulopathy ([4]; pivotal phase 3 program): did not increase the risk of cardiac valvulopathy | Average weight loss of the top quartile, % of body weight [4, 8]: 16% | Average weight loss of the top quartile, pounds [4, 8]: 35 pounds

(R)-8-Chloro-1-methyl-2,3,4,5-tetrahydro-1H-3-benzazepine Di-camphorate Salt Solvate
Solubility in water [2]: 38.6 mg/mL | Aqueous solubility expressed as the free base ([2]; water, pH 5.2): 12.3 mg/mL | DMS weight lost on the desorption phase ([5]; 25° C. and 10% RH): over 1.2% | State of the sample after DMS analysis [5]: crystalline phase did not change

(R)-8-Chloro-1-methyl-2,3,4,5-tetrahydro-1H-3-benzazepine Glucuronate Salt [Compound 1 Glucuronate Salt, Form I]
Solubility in water [2]: 2.5 mg/mL

(R)-8-Chloro-1-methyl-2,3,4,5-tetrahydro-1H-3-benzazepine Hemi-L-malate Salt [Compound 1 Hemi-L-Malate Salt, Form I]
DRH (deliquescence relative humidity) [1]: 89.9 % RH | Solubility in water [2]: 486.3 mg/mL

(R)-8-Chloro-1-methyl-2,3,4,5-tetrahydro-1H-3-benzazepine Pyroglutamate Salt [Compound 1 Pyroglutamate Salt, Form I]
DMS weight increase at 70% RH [5]: ~17% | DMS weight increase at 70% RH ([5]; listed as Compound 1 Pyrogluconate Salt): FIG. 21: 17-24% weight increase at 70% RH, about | State of the sample after DMS analysis [5]: sticky oil
